ChEMBL document CHEMBL3400102, “Design, synthesis and biological evaluation of N-phenylthieno[2,3-d]pyrimidin-4-amines as inhibitors of FGFR1” (Bioorg Med Chem, 2015)

Target: Fibroblast growth factor receptor 1 (Homo sapiens, UniProt P11362)
Assay: Inhibition of FGFR1 (unknown origin) using KKKSPGEYVNIEFG peptide substrate assessed as incorporation of [32P] into peptide by scintillation counting analysis
Settings: not given

Fibroblast growth factor receptor 1, sequence (P11362 whole entry): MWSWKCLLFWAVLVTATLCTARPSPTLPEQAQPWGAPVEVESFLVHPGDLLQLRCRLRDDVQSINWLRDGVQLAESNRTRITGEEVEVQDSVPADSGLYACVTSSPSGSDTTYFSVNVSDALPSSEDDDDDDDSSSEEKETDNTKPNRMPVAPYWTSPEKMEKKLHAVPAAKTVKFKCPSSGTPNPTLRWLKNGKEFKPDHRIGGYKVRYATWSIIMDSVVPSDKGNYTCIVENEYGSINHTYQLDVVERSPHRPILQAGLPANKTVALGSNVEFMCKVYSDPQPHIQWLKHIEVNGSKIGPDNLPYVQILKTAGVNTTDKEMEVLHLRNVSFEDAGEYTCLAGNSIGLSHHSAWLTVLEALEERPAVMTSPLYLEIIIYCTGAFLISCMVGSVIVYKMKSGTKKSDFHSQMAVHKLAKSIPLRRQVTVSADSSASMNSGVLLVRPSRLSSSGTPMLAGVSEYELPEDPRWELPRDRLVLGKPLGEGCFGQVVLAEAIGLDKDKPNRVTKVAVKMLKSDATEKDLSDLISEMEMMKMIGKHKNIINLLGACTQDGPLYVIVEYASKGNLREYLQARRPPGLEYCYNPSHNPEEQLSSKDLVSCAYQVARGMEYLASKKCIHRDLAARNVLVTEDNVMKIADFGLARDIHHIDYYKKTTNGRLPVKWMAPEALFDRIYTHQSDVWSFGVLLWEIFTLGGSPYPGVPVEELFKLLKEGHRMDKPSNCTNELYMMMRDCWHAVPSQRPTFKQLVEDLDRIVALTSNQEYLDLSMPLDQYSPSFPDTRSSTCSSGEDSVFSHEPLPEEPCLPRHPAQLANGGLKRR

Row | Compound | IC50
1 | Oc1cccc(Nc2ncnc3scc(-c4ccc(Cl)cc4)c23)c1 | 0.5 µM
2 | Fc1ccc(Nc2ncnc3sc(-c4ccccc4)cc23)cc1 | 4.3 µM
3 | COc1ccc(Nc2ncnc3scc(-c4ccccc4)c23)cc1 | 3 µM
4 | CCOC(=O)c1sc2ncnc(Nc3cccc(OC)c3)c2c1C | > 30 µM
5 | Cc1sc2ncnc(Nc3ccc(O)cc3)c2c1-c1ccccc1 | 1.25 µM
6 | Oc1ccc(Nc2ncnc3scc(-c4ccccc4)c23)cc1 | 1.66 µM
7 | COc1cccc(Nc2ncnc3scc(-c4ccc(Cl)cc4)c23)c1 | > 30 µM
8 | CCOc1ccc(-c2csc3ncnc(Nc4cccc(O)c4)c23)cc1 | 12.5 µM
9 | Cc1cc2c(Nc3ccc(O)cc3)ncnc2s1 | 5.6 µM
10 | Cc1ccc(-c2csc3ncnc(Nc4cccc(O)c4)c23)cc1 | 0.7 µM
11 | Fc1ccc(Nc2ncnc3sc4c(c23)CCCC4)cc1 | 3.2 µM
12 | CCOC(=O)c1sc2ncnc(Nc3ccc(OC)cc3)c2c1C | > 30 µM
13 | Oc1cccc(Nc2ncnc3sc(-c4ccccc4)cc23)c1 | 0.16 µM
14 | Fc1ccc(Nc2ncnc3scc(-c4ccccc4)c23)cc1 | 6.3 µM
15 | Cc1nc(Nc2ccc(O)cc2)c2cc(-c3ccccc3)sc2n1 | 5 µM
16 | COc1cccc(Nc2ncnc3scc(-c4ccccc4)c23)c1 | 2.5 µM
17 | CCOC(=O)c1sc2ncnc(Nc3ccc(F)cc3)c2c1C | > 30 µM
18 | CCOC(=O)c1sc2ncnc(Nc3cccc(O)c3)c2c1C | 0.5 µM
19 | Cc1ccc(-c2csc3ncnc(Nc4ccc(C(=O)O)cc4)c23)cc1 | > 30 µM
20 | Oc1ccc(Nc2ncnc3scc(-c4ccc(Cl)cc4)c23)cc1 | 3 µM
21 | COc1ccc(Nc2ncnc3scc(-c4ccc(C)cc4)c23)cc1 | 5 µM
22 | Fc1ccccc1Nc1ncnc2sc(-c3ccccc3)cc12 | 18.2 µM

Further lines, results first:

Row | IC50 | Compound
23 | 11 µM | Cc1ccc(-c2csc3ncnc(Nc4cccc(C(=O)O)c4)c23)cc1
24 | 4.3 µM | Fc1ccccc1Nc1ncnc2sc3c(c12)CCCCC3
25 | > 30 µM | CCOc1ccc(-c2csc3ncnc(Nc4ccc(O)cc4)c23)cc1
26 | > 30 µM | Fc1ccc(Nc2ncnc3scc(-c4ccc(Cl)cc4)c23)cc1
27 | > 30 µM | CCOC(=O)c1sc2ncnc(Nc3cccc(C(=O)O)c3)c2c1C
28 | 1.2 µM | Oc1ccc(Nc2ncnc3sc(-c4ccccc4)cc23)cc1
29 | 1.6 µM | Fc1ccc(Nc2ncnc3sc4c(c23)CCCCC4)cc1Cl
30 | 0.18 µM | Oc1cccc(Nc2ncnc3scc(-c4ccccc4)c23)c1
31 | > 30 µM | Fc1ccccc1Nc1ncnc2scc(-c3ccccc3)c12
32 | > 30 µM | Cc1ccc(-c2csc3ncnc(Nc4ccc(F)cc4)c23)cc1

Test system: not listed separately
Assay: Antiproliferative activity against human KG1 cells after 72 hrs by MTT assay
Assay type: functional, cell-based
Settings: KG-1, 72 h

Row | Compound | IC50
33 | Oc1cccc(Nc2ncnc3scc(-c4ccc(Cl)cc4)c23)c1 | 50 µM
34 | Cc1ccc(-c2csc3ncnc(Nc4cccc(O)c4)c23)cc1 | 33.9 µM
35 | Oc1cccc(Nc2ncnc3sc(-c4ccccc4)cc23)c1 | 16.2 µM
36 | Oc1cccc(Nc2ncnc3scc(-c4ccccc4)c23)c1 | 26.2 µM
